According to patent publication US20230143612A1 (Arbutus Biopharma Corporation, priority 2020, published 2023):

molecular target: PD-L1 His protein / PD-1 Fc protein (Homo sapiens, UniProt Q9NZQ7); test: HTRF Assay (PD-1/PD-L1 interaction); assay type: binding; conditions: PD-L1 His 6 nM, PD-1 Fc 6 nM
Procedure, shortened: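 HTRF: PD-L1 His (6 nM final), compound (3-fold dilutions, 20 μM to 0.001 μM final) and PD-1 Fc (6 nM final) preincubated 15 min at room temperature. Anti-human IgG-XL665 and anti-6HIS Tb cryptate (mixed at 6.7 nM and 0.35 nM) then added for 1 h at room temperature before reading.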

PD-L1 His protein / PD-1 Fc protein, sequence (Q9NZQ7 19-238 limits assumed): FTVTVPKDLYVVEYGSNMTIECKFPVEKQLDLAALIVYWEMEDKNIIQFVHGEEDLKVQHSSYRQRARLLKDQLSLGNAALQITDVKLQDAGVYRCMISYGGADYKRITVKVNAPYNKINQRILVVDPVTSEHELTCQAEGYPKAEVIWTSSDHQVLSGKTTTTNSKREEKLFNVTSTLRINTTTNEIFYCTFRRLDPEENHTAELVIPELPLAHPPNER

Compound	IC50
COC(=O)C[C@H](O)CNCc1ccc(-c2cccc(-c3cccc(-c4ccn5c(=O)c(CNC[C@@H](O)CC(=O)OC)cnc5c4)c3Cl)c2Cl)nc1OC [Example 231, Methyl (3S)-4-[[6-[2-chloro-3-[2-chloro-3-[3-[[[(2S)-2-hydroxy-4-methoxy-4-oxo-butyl]amino]methyl]-4-oxo-pyrido[1,2-a]pyrimidin-8-yl]phenyl]phenyl]-2-methoxy-3-pyridyl]methylamino]-3-hydroxy-butanoate]	120 nM
COc1nc(-c2cccc(-c3cccc(-c4cc(F)c(CNC[C@@H]5CCC(=O)N5)c(OC)n4)c3Cl)c2Cl)ccc1CNC[C@@H]1CCC(=O)N1 [Example 232, (S)-5-((((6-(2,2′-dichloro-3′-(4-fluoro-6-methoxy-5-(((((S)-5-oxopyrrolidin-2-yl)methyl)amino)methyl)pyridin-2-yl)-[1,1′-biphenyl]-3-yl)-2-methoxypyridin-3-yl)methyl)amino)methyl)pyrrolidin-2-one]	63 nM
COc1nc(-c2cccc(-c3cccc(-c4ccn5c(=O)c(CNCC6(O)CCC6)cnc5c4)c3Cl)c2Cl)ccc1CNC[C@@H]1CCC(=O)N1 [Example 233, (S)-8-(2,2′-Dichloro-3′-(6-methoxy-5-((((5-oxopyrrolidin-2-yl)methyl)amino)methyl)pyridin-2-yl)-[1,1′-biphenyl]-3-yl)-3-((((1-hydroxycyclobutyl)methyl)amino)methyl)-4H-pyrido[1,2-a]pyrimidin-4-one]	0.2 nM
COc1nc(-c2cccc(-c3cccc(-c4ccn5c(=O)c(CNCC6(O)CC6)cnc5c4)c3Cl)c2Cl)ccc1CNC[C@@H]1CCC(=O)N1 [Example 234, (S)-8-(2,2′-Dichloro-3′-(6-methoxy-5-((((5-oxopyrrolidin-2-yl)methyl)amino)methyl)pyridin-2-yl)-[1,1′-biphenyl]-3-yl)-3-((((1-hydroxycyclopropyl)methyl)amino)methyl)-4H-pyrido[1,2-a]pyrimidin-4-one]	0.1 nM
COc1nc(-c2cccc(-c3cccc(-c4cc(F)c(CNC[C@@H]5CCC(=O)N5)c(OC)n4)c3Cl)c2Cl)cc(F)c1CNC[C@@H]1CCC(=O)N1 [Example 236, (5S,5′S)-5,5′-(((((2,2′-dichloro-[1,1′-biphenyl]-3,3′-diyl)bis(4-fluoro-2-methoxypyridine-6,3-diyl))bis(methylene))bis(azanediyl))bis(methylene))bis(pyrrolidin-2-one)]	1.2 nM
NC1(Cc2ccc(-c3cccc(-c4cccc(-c5ccn6c(=O)c(CNC[C@@H]7CCC(=O)N7)cnc6c5)c4Cl)c3Cl)cc2)CC1 [Example 237, (S)-8-(4″-((1-Aminocyclopropyl)methyl)-2,2′-dichloro-[1,1′:3′,1″-terphenyl]-3-yl)-3-((((5-oxopyrrolidin-2-yl)methyl)amino)methyl)-4H-pyrido[1,2-a]pyrimidin-4-one]	900 nM
COc1nc(-c2cccc(-c3cccc(-c4ccn5c(=O)c(CNC[C@@H](O)CC(N)=O)cnc5c4)c3Cl)c2Cl)ccc1CNC[C@@H]1CCC(=O)N1 [Example 238, (3S)-4-[[8-[2-chloro-3-[2-chloro-3-[6-methoxy-5-[[[(2S)-5-oxopyrrolidin-2-yl]methylamino]methyl]-2-pyridyl]phenyl]phenyl]-4-oxo-pyrido[1,2-a]pyrimidin-3-yl]methylamino]-3-hydroxy-butanamide]	0.1 nM
COc1nc(-c2cccc(-c3cccc(-c4ccc5nn(CCO)c(=O)n5c4)c3Cl)c2Cl)ccc1CNC[C@@H]1CCC(=O)N1 [Example 239, (S)-6-(2,2′-Dichloro-3′-(6-methoxy-5-((((5-oxopyrrolidin-2-yl)methyl)amino)methyl)pyridin-2-yl)-[1,1′-biphenyl]-3-yl)-2-(2-hydroxyethyl)-[1,2,4]triazolo[4,3-a]pyridin-3(2H)-one]	0.1 nM
COc1nc(-c2cccc(-c3cccc(-c4nnc5n4CCNC5)c3Cl)c2Cl)ccc1CNC[C@@H]1CCC(=O)N1 [Example 240, (S)-5-((((6-(2,2′-Dichloro-3′-(5,6,7,8-tetrahydro-[1,2,4]triazolo[4,3-a]pyrazin-3-yl)-[1,1′-biphenyl]-3-yl)-2-methoxypyridin-3-yl)methyl)amino)methyl)pyrrolidin-2-one]	350 nM
